The values below are quoted from earlier work in US20100098759A1, “CONTROLLED-RELEASE PREPARATION CONTAINING CILOSTAZOL AND PROCESS FOR THE PREPARATION THEREOF” (AMOREPACIFIC CORPORATION;, priority 2007, published 2010).

For `O=C1CCc2cc(OCCCCc3nnnn3C3CCCCC3)ccc2N1` [Cilostazol], the water-solubility was no more than 1 µg/mL.
